Assay [1] relates to P. falciparum 3D7. Nature of the assay: Microscopic examination of Giemsa-stained smears (stage of action).
In another assay the target is T1, PfPKG (Plasmodium falciparum, UniProt Q8I719).
T1 construct: plasmids (pTrcHisC) encoding full-length PfPKG and PfPKG T618Q with N-terminal His tags; His tag (N); made in house; host or cells: E. coli Rosetta2(DE3)
The assay is described as follows: Microfluidic fluorescent shift assay of cGMP-dependent protein kinase activity. It is filed as biochemical.

In another assay the target is PfHSP90-NTD (Plasmodium falciparum, UniProt Q8IC05). Nature of the assay: Tryptophan fluorescence binding, PfHSP90 N-terminal domain. From the text:
PfCDPK1 and PfCDPK1 T145G proteins were produced using methods described elsewhere ([23]). The PfHSP90 N-terminal domain (NTD) comprises the first 223 amino acids of PfHSP90. This region was amplified from the full-length PfHSP90-pRSET-A construct ([32]) using the following primers: primer 7, […]; primer 8, […].
The PCR product was cloned into pRSET-A (Life Technologies) between the BamHI and XhoI sites. Positive clones were confirmed by restriction digestion and sequencing. The clone was transformed into Escherichia coli Rosetta(pLysS) cells, and protein was expressed by induction with 0.1 mM isopropyl β-D-1-thiogalactopyranoside (IPTG) at 37°C for 2 h. […]
Tryptophan fluorescence analysis was performed using a PerkinElmer LS55 luminescence spectrometer. […] Samples were excited at 280 nm, and tryptophan fluorescence measurements were carried out by scanning the emission spectrum in the wavelength range 300 to 400 nm. […] The difference in fluorescence intensity between protein alone and protein with various concentrations of 17-AAG or compound D was calculated and plotted against the different concentrations of the respective ligand used. The resultant hyperbolic curve was analyzed with GraphPad Prism software, using nonlinear regression analysis with single-site-specific binding as described previously ([32]).

In assay [2] the test system is P. falciparum 3D7. The assay is described as follows: SYBR green I growth assay, wild-type parasites. To be noted: Plasmodium falciparum. It is filed as cell-based, Plasmodium falciparum.
In another assay the test system is trophozoite cell lysate. Nature of the assay: Affinity purification of targets of biotinylated compound D, LC-MS/MS. In kind it is binding, Plasmodium falciparum. To be noted: biotin linked to R1 group of compound D, streptavidin-agarose. As for the experimental part:
A total of 200 μl of high-capacity streptavidin agarose (Thermo Scientific) was resuspended in 1 ml of 250 μg/ml biotinylated compound D solution or a DMSO control. After incubation with mixing for 1 h at room temperature, unbound compound was removed by extensive washing with phosphate-buffered saline (PBS). The resin was incubated with trophozoite lysate containing 2 mg of protein in a total volume of 1.5 ml overnight at 4°C. The lysate was prepared by resuspending trophozoites in 20 mM Tris-HCl, pH 8.0, 10 mM MgCl2, 250 mM NaCl, 0.5 mM tris(2-carboxyethyl)phosphine (TCEP), 1× protein phosphatase inhibitor (Sigma-Aldrich), 1× complete protease inhibitors (Roche), and 0.1% Triton X-100 (Sigma-Aldrich). Insoluble proteins were removed by centrifugation at 15,000 × g for 20 min, and protein was quantitated using a detergent-compatible (DC) protein assay (Bio-Rad). […]
Proteins were run 4 mm into a 10% NuPAGE Bis-Tris gel (Life Technologies) and then excised using a clean scalpel blade. […] The resulting digests were analyzed by liquid chromatography-tandem mass spectrometry (LC-MS/MS) using an Ultimate 3000 nanoRSLC high-performance liquid chromatograph (HPLC), equipped with a 50-cm by 75-μm Acclaim Pepmap C18 column, coupled to a linear trap quadrupole (LTQ) Orbitrap Velos Pro equipped with a Nanoflex electrospray source (all Thermo Scientific). […]

Another assay relates to 3D7 PKG T618Q. The assay is described as follows: microbe, parasite or virus in culture. In kind it is cell-based, Plasmodium falciparum. To be noted: Plasmodium falciparum, 3D7, 96 h, read-out: Parasite inhibition EC50, 3D7 PKG T618Q.
A further assay has as its target T2, PfPKG T618Q (Plasmodium falciparum, UniProt Q8I719, T618Q).
T2 construct: plasmids (pTrcHisC) encoding full-length PfPKG and PfPKG T618Q with N-terminal His tags; His tag (N); made in house; host or cells: E. coli Rosetta2(DE3)
Nature of the assay: biochemical. In kind it is biochemical.

The target in a further assay is PfHSP90 (Plasmodium falciparum, UniProt Q8IC05). Nature of the assay: Tryptophan fluorescence binding, full-length PfHSP90. As for the experimental part: The PCR product was cloned into pRSET-A (Life Technologies) between the BamHI and XhoI sites. Positive clones were confirmed by restriction digestion and sequencing. The clone was transformed into Escherichia coli Rosetta(pLysS) cells, and protein was expressed by induction with 0.1 mM isopropyl β-D-1-thiogalactopyranoside (IPTG) at 37°C for 2 h. PfHSP90 proteins were purified using Ni-nitrilotriacetic acid (NTA) affinity chromatography (Qiagen) as described in the manufacturer's protocol.
PfHSP90, sequence (Q8IC05 entry or part of it): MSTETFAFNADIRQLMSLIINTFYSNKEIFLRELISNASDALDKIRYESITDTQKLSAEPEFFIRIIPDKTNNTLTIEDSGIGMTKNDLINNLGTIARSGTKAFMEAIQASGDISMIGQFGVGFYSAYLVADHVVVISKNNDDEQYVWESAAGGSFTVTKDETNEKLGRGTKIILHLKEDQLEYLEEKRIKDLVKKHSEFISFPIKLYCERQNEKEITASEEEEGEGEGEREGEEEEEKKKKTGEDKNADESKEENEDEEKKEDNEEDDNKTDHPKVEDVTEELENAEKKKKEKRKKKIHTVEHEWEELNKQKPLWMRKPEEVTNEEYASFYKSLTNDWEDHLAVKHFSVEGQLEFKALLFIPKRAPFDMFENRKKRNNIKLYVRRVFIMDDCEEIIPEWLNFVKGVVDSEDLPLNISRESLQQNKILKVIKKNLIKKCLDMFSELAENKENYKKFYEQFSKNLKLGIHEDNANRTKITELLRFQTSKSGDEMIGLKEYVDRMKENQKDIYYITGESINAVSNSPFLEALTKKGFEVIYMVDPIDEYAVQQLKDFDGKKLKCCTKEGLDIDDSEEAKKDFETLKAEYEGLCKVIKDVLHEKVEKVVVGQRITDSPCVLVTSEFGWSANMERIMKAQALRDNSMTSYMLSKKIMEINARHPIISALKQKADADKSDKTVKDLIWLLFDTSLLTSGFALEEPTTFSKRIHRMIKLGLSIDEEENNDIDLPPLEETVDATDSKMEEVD
Tryptophan fluorescence analysis was performed using a PerkinElmer LS55 luminescence spectrometer. […] The binding buffer used for the reaction contained 50 mM Tris-HCl, pH 7.4, and 1 mM EDTA. Samples were excited at 280 nm, and tryptophan fluorescence measurements were carried out by scanning the emission spectrum in the wavelength range 300 to 400 nm. A maximum wavelength (λmax) of 346 nm was selected for all the calculations. The slit widths of excitation and emission were set at 2.5 and 5 nm, respectively. The difference in fluorescence intensity between protein alone and protein with various concentrations of 17-AAG or compound D was calculated and plotted against the different concentrations of the respective ligand used. The resultant hyperbolic curve was analyzed with GraphPad Prism software, using nonlinear regression analysis with single-site-specific binding as described previously ([32]).

The target in a further assay is T3, CDPK1 T145G (Plasmodium falciparum, UniProt P62344, T145G).
T3 construct: PfCDPK1 and PfCDPK1 T145G proteins were produced using methods described elsewhere; made in house
T3 sequence (P62344 whole entry T145G): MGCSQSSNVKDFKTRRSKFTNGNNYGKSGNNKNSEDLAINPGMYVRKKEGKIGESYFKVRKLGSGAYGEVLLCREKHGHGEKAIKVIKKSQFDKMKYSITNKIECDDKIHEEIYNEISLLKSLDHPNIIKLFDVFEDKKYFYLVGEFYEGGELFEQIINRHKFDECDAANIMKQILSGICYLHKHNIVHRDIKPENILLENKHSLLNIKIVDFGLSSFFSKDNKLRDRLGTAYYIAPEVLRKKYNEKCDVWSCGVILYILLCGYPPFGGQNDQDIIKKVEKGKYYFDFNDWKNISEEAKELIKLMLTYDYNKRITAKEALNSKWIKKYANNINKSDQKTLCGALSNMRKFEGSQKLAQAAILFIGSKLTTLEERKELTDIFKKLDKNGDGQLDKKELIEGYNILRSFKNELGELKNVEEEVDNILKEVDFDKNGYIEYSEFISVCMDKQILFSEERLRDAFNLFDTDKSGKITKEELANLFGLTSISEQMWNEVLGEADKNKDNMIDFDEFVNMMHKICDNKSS
The assay is described as follows: ParM ADP biosensor assay, CDPK1 T145G. In kind it is biochemical.

Another assay has as its target WT CDPK1 (Plasmodium falciparum, UniProt P62344). The assay is described as follows: biochemical.
A further assay has as its system 3D7 CDPK1 T145G-HA. Nature of the assay: SYBR green assay, 3D7 CDPK1 T145G-HA line. It is filed as cell-based. As to conditions: Plasmodium falciparum, 3D7, read-out: EC50, 3D7 CDPK1 T145G-HA. As for the experimental part: (§1) Aliquots of 100 μl of P. falciparum cultures 24 h after erythrocyte invasion were transferred into 96-well culture dishes. Cells were incubated with inhibitors for 48 or 96 h (starting parasitemias were 0.3% and 0.03%, respectively). All drug treatments were carried out in duplicate at a final dimethyl sulfoxide (DMSO) concentration of 0.05%. After incubation, a modification of a previously described SYBR green assay was performed ([27]). Cells were lysed by the addition of 25 μl of buffer (20 mM Tris-HCl, pH 8.0, 2 mM EDTA, pH 8.0, 1.6% Triton X-100, 0.16% saponin, 10× SYBR green I [Life Technologies]). After incubation in the dark for 2 h, fluorescence of the samples was determined using a FLUOStar Omega plate reader (BMG Labtech) with excitation and emission filters of 485 nm and 520 nm, respectively. EC50s were calculated from a four-parameter logistical fit of the data using Prism software (GraphPad Software, Inc.).
(§2) Parasites expressing CDPK1 T145G and CDPK1 T145T were generated as described previously ([28]). Briefly, a region of homology to facilitate integration of the plasmid via single-crossover homologous recombination was amplified from P. falciparum 3D7 genomic DNA at 194 bp upstream of the ATG to bp 435 of the open reading frame using primers 1 and 2 for the wild-type (WT) version and primers 1 and 3 for the glycine version. […]

In the next assay the test system is 3D7 CDPK1 T145T-HA. Nature of the assay: SYBR green assay, 3D7 CDPK1 T145T-HA line. As to conditions: Plasmodium falciparum, 3D7, read-out: EC50, 3D7 CDPK1 T145T-HA. It is filed as cell-based. As for the experimental part:
as §1, §2

We go through three molecules from paper PMC4775997, “Imidazopyridazine Inhibitors of Plasmodium falciparum Calcium-Dependent Protein Kinase 1 Also Target Cyclic GMP-Dependent Protein Kinase and Heat Shock Protein 90 To Kill the Parasite at Different Stages of Intracellular Development” (Antimicrobial Agents and Chemotherapy, 2016).

SMILES strings stand for the structures. Where two headings read alike, the source gives them in different places.

T2 sequence (Q8I719 whole entry T618Q): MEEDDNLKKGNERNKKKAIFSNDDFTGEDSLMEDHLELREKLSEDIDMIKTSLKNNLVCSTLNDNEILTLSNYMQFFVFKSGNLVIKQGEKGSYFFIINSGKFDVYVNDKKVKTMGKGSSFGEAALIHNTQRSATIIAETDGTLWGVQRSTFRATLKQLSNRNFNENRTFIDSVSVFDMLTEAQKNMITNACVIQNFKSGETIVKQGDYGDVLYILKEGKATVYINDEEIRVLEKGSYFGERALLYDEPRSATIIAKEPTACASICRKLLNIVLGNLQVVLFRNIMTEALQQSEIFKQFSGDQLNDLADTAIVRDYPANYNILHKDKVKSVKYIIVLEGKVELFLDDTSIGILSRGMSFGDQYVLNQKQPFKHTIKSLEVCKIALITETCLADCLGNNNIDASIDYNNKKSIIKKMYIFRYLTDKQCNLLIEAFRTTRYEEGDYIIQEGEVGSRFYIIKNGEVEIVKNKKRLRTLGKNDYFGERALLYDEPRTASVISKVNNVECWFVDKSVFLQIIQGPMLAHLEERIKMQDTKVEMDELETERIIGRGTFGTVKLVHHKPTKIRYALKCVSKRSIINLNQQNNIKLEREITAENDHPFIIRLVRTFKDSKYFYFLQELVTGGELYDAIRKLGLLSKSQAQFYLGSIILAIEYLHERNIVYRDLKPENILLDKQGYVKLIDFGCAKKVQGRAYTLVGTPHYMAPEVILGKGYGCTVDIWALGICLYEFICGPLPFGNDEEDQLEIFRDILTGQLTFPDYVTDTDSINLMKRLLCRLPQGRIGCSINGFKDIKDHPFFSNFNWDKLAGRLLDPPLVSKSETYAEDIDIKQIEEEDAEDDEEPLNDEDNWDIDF
WT CDPK1, sequence (P62344 whole entry): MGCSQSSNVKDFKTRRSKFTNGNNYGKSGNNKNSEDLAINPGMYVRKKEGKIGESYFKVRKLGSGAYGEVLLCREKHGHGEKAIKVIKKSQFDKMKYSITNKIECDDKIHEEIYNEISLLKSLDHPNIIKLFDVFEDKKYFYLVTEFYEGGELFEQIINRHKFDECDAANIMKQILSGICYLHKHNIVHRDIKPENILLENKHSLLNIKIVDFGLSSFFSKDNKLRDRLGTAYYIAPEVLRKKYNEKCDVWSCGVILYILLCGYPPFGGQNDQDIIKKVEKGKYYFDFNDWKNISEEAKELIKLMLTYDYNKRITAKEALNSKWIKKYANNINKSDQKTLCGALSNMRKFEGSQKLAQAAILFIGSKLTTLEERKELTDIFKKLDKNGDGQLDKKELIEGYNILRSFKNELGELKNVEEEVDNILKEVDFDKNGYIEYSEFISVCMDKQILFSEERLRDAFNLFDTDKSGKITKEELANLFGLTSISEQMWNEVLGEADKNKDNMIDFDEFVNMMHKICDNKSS
PfHSP90-NTD, sequence (Q8IC05 entry or part of it): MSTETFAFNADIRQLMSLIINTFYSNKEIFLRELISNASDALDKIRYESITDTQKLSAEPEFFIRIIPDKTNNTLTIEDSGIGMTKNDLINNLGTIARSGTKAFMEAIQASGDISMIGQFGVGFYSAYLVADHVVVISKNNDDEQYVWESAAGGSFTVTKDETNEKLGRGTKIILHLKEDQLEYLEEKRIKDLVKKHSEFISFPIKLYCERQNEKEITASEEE

For orientation: IC50 means the concentration needed to halve the response being measured. The Kd is the constant that tells how readily two partners part at equilibrium. A higher Kd goes with lower affinity. As a reminder, the EC50 is the concentration giving half of the maximal effect. Turning to `CC(C)CCNc1ccc(-c2cnc3ccc(NC4CCN(C)CC4)nn23)cn1` [Compound 7], the “Stage of action (before or after DNA synthesis)” value in the assay with P. falciparum 3D7 [1] (Table S1, ring-stage parasites, 10x EC50 for 48 h) is recorded as “trophozoite”. The “Developmental arrest seen in smears” value with P. falciparum 3D7 [1] (parasites about 21 h after invasion, 48 h at 10 times the EC50 determined by FACS (compound C 0.3 μM, compound D 4 μM)) is reported as “failed to develop beyond late rings/early trophozoites”. The Stage of action result in the assay with P. falciparum 3D7 [1] (ring stage parasites treated with 10 times the 96-h EC50 for 48 h) is “Trophozoite”. Also, the concentration for half-maximal inhibition (IC50) on PfPKG turned out to be 0.484 µM; at PfPKG T618Q, 15.5 µM. Besides, the Kd turned out to be 10.7 µM on PfHSP90-NTD and 6.17 µM on PfHSP90. In addition, the EC50 turned out to be 0.36 µM with P. falciparum 3D7 [2] (3D7, 48 h, Table S1, single experiment with duplicate samples, or mean of triplicate experiments (SD), read-out: EC50 48 hours); 0.31 µM in the assay on P. falciparum 3D7 [2] (3D7, 96 h, Table S1, single experiment with duplicate samples, or mean of triplicate experiments (SD), read-out: EC50 96 hours); 0.355 µM with P. falciparum 3D7 [2] (3D7, SYBR green I, 48 h incubation, mean of three independent experiments (SD), read-out: EC50 after treatment for 48 h); 0.311 µM in the assay on P. falciparum 3D7 [2] (3D7, SYBR green I, 96 h incubation, mean of three independent experiments (SD), read-out: EC50 after treatment for 96 h); 0.427 µM with P. falciparum 3D7 [2] (3D7, Table 2, SYBR green I, 96 h, single experiment, or mean (SD) of duplicate assays, read-out: Parasite inhibition EC50, 3D7); 0.477 µM with 3D7 PKG T618Q. The “Significant hit identified by LC-MS/MS” value with trophozoite cell lysate is given as “HSP90”.

Regarding `CC(C)(C)n1nc(-c2cccc3ccccc23)c2c(N)ncnc21` [NA-PP1, 1-(1,1-dimethylethyl)-3-(1-naphthalenyl)-1H-pyrazolo[3,4-d]pyrimidin-4-amine], the results for the half-inhibitory concentration (IC50) against CDPK1 T145G and at WT CDPK1 were 0.15 µM and 6.01 µM, respectively. The “Increase in sensitivity of CDPK1 T145G over wild-type enzyme” value at CDPK1 T145G (ratio of IC50s) is on record as 41 fold. Also, the values for the EC50 in the assay with 3D7 CDPK1 T145G-HA and in the assay on 3D7 CDPK1 T145T-HA were 15.7 µM and 14.3 µM, respectively.

`CC(C)(C)n1nc(Cc2cccc3ccccc23)c2c(N)ncnc21` [NM-PP1, 1-(1,1-dimethylethyl)-3-(1-naphthalenylmethyl)-1H-pyrazolo[3,4-d]pyrimidin-4-amine]: the EC50 with 3D7 CDPK1 T145G-HA amounted to 10.3 µM; in the assay with 3D7 CDPK1 T145T-HA, 11.6 µM.
